Data taken from ChEMBL document CHEMBL4311986, “Synthesis and biological evaluation of new multi-target 3-(1H-indol-3-yl)pyrrolidine-2,5-dione derivatives with potential antidepressant effect” (Eur J Med Chem, 2019).

Experiments:
[1] = target: Sodium-dependent serotonin transporter (Homo sapiens, UniProt P31645); experiment: Displacement of [3H]-imipramine from human serotonin transporter expressed in HEK293 cells membranes incubated for 30 mins by microbeta scintillation counting analysis; format: cell membranes
[2] = target: T1, 5-hydroxytryptamine receptor 1A (Homo sapiens, UniProt P08908); experiment: biochemical
T1 sequence (P08908 whole entry): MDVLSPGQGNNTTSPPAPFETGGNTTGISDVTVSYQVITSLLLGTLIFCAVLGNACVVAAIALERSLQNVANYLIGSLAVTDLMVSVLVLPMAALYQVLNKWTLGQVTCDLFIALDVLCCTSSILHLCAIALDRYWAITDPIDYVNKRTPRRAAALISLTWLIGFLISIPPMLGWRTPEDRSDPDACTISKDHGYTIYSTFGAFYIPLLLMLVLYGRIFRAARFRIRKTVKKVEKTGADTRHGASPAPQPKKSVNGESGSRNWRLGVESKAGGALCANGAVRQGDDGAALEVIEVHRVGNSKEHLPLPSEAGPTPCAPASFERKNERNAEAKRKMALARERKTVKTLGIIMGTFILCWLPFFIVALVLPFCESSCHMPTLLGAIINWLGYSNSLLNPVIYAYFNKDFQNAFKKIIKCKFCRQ

[3] = Half life in human liver microsomes at 1 uM measured for 5 to 30 mins in presence of NADPH by LC-MS/MS analysis; format: ADME, Microsome
Mus musculus [4] = experiment: Induction of hypothermia in CD-1 mouse assessed as change in body temperature at 15 mg/kg, ip pretreated for 60 mins with 5-HT1AR antagonist WAY100635 followed by compound treatment and measured after 30 mins by thermometric method (reference value: -0.1 to 0.4 deg C); format: functional, organism-based
Mus musculus [5] = experiment: Induction of hypothermia in CD-1 mouse assessed as change in body temperature at 5 mg/kg, ip measured after 120 mins by thermometric method; format: functional, organism-based
Mus musculus [6] = experiment: Induction of hypothermia in CD-1 mouse assessed as change in body temperature at 10 mg/kg, ip measured after 60 mins by thermometric method; format: functional, organism-based
Mus musculus [7] = experiment: Induction of hypothermia in CD-1 mouse assessed as change in body temperature at 15 mg/kg, ip measured after 30 mins by thermometric method (reference value: -0.2 to 0.4 deg C); format: functional, organism-based
Mus musculus [8] = experiment: Induction of hypothermia in CD-1 mouse assessed as change in body temperature at 15 mg/kg, ip measured after 90 mins by thermometric method (reference value: -0.3 to 0.3 deg C); format: functional, organism-based
Mus musculus [9] = experiment: Induction of hypothermia in CD-1 mouse assessed as change in body temperature at 10 mg/kg, ip measured after 90 mins by thermometric method; format: functional, organism-based
Mus musculus [10] = experiment: Induction of hypothermia in CD-1 mouse assessed as change in body temperature at 10 mg/kg, ip measured after 30 mins by thermometric method; format: functional, organism-based
Mus musculus [11] = experiment: Induction of hypothermia in CD-1 mouse assessed as change in body temperature at 15 mg/kg, ip pretreated for 30 mins with 5-HT1AR antagonist WAY100635 followed by compound treatment and measured after 30 mins by thermometric method (reference value: -0.1 to 0.1 deg C); format: functional, organism-based
Mus musculus [12] = experiment: Induction of hypothermia in CD-1 mouse assessed as change in body temperature at 5 mg/kg, ip measured after 60 mins by thermometric method; format: functional, organism-based
Mus musculus [13] = experiment: Induction of hypothermia in CD-1 mouse assessed as change in body temperature at 15 mg/kg, ip measured after 60 mins by thermometric method (reference value: -0.2 to 0.5 deg C); format: functional, organism-based
Mus musculus [14] = experiment: Induction of hypothermia in CD-1 mouse assessed as change in body temperature at 20 mg/kg, ip measured after 120 mins by thermometric method; format: functional, organism-based
Mus musculus [15] = experiment: Induction of hypothermia in CD-1 mouse assessed as change in body temperature at 5 mg/kg, ip measured after 30 mins by thermometric method; format: functional, organism-based
Mus musculus [16] = experiment: Induction of hypothermia in CD-1 mouse assessed as change in body temperature at 20 mg/kg, ip measured after 90 mins by thermometric method; format: functional, organism-based
Mus musculus [17] = experiment: Induction of hypothermia in CD-1 mouse assessed as change in body temperature at 20 mg/kg, ip measured after 30 mins by thermometric method; format: functional, organism-based
D(2) dopamine receptor = D(2) dopamine receptor (Homo sapiens, UniProt P14416); experiment: Displacement of [3H]-raclopride from human D2L receptor expressed in HEK293 cells incubated for 1 hr by liquid scintillation counting method; format: cell-based
Mus musculus [18] = experiment: Induction of hypothermia in CD-1 mouse assessed as change in body temperature at 10 mg/kg, ip measured after 120 mins by thermometric method; format: functional, organism-based
Mus musculus [19] = experiment: Induction of hypothermia in CD-1 mouse assessed as change in body temperature at 5 mg/kg, ip measured after 90 mins by thermometric method; format: functional, organism-based
[20] = target: 5-hydroxytryptamine receptor 6 (Homo sapiens, UniProt P50406); experiment: Displacement of [3H]-LSD from human 5-HT6 receptor expressed in HEK293 cells incubated for 1 hr by liquid scintillation counting method; format: cell-based
[21] = target: 5-hydroxytryptamine receptor 7 (Homo sapiens, UniProt P34969); experiment: Displacement of [3H]-5-CT from human 5HT7 receptor expressed in HEK293 cells incubated for 1 hr by liquid scintillation counting method; format: cell-based
Mus musculus [22] = experiment: Induction of hypothermia in CD-1 mouse assessed as change in body temperature at 20 mg/kg, ip measured after 60 mins by thermometric method; format: functional, organism-based
Mus musculus [23] = experiment: Induction of hypothermia in CD-1 mouse assessed as change in body temperature at 15 mg/kg, ip measured after 120 mins by thermometric method (reference value: -0.1 to 0.3 deg C); format: functional, organism-based
Mus musculus [24] = experiment: Induction of hypothermia in CD-1 mouse assessed as change in body temperature at 10 mg/kg, ip pretreated for 60 mins with 5-HT1AR antagonist WAY100635 followed by compound treatment and measured after 30 mins by thermometric method; format: functional, organism-based
Mus musculus [25] = experiment: Induction of hypothermia in CD-1 mouse assessed as change in body temperature at 10 mg/kg, ip pretreated for 30 mins with 5-HT1AR antagonist WAY100635 followed by compound treatment and measured after 30 mins by thermometric method; format: functional, organism-based

Sequence of 5-hydroxytryptamine receptor 6 (P50406 whole entry): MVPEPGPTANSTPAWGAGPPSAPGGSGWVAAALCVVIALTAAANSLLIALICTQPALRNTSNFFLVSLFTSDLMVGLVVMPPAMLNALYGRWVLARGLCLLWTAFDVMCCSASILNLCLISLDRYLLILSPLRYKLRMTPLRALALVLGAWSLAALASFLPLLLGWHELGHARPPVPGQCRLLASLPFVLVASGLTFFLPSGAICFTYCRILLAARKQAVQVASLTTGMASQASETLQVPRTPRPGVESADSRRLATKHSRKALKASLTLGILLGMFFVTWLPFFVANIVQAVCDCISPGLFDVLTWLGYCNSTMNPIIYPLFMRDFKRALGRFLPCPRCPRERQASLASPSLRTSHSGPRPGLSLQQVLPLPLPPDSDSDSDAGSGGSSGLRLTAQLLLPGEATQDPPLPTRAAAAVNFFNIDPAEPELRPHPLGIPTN
Sequence of Sodium-dependent serotonin transporter (P31645 whole entry): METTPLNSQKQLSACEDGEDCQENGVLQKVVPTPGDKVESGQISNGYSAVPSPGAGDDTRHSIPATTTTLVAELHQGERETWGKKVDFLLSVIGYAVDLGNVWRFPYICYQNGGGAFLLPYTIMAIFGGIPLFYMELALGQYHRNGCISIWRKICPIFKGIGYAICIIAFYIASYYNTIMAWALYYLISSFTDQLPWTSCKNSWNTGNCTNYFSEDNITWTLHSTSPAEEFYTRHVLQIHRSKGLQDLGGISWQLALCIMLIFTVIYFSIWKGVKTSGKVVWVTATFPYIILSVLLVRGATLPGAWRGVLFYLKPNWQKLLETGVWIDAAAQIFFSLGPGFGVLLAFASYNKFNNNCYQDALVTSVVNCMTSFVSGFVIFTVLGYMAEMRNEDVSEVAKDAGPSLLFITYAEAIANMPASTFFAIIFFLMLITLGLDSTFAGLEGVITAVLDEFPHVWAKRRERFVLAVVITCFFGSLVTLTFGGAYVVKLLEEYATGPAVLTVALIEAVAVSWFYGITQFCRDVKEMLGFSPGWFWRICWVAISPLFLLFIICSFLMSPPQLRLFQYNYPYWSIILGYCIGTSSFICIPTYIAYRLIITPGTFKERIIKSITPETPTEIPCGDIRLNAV
Sequence of 5-hydroxytryptamine receptor 7 (P34969 whole entry): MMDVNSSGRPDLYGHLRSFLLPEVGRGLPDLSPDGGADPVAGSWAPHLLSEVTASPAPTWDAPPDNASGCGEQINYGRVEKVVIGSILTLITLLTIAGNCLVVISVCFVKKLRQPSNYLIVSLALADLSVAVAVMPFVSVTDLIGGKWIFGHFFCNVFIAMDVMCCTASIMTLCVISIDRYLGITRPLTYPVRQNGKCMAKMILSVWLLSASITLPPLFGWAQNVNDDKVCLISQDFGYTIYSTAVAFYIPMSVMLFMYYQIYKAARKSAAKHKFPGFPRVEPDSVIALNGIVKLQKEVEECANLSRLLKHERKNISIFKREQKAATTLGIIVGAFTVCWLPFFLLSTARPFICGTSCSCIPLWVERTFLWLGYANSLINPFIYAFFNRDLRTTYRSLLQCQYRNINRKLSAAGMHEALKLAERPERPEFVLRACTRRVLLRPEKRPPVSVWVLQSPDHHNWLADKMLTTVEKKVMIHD
Sequence of D(2) dopamine receptor (P14416 whole entry): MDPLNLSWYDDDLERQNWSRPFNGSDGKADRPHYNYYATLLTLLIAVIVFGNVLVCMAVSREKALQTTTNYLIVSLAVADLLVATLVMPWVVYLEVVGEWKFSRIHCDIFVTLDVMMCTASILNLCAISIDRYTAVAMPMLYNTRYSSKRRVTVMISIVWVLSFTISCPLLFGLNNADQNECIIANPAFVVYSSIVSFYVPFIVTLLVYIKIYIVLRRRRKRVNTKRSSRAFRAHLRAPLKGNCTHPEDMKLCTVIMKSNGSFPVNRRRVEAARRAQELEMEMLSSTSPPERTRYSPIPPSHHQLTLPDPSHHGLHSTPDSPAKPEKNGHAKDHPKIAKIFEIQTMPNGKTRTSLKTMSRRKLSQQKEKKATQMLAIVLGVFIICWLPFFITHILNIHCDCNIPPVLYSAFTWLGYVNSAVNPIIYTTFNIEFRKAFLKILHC

COc1ccc2[nH]cc(C3CC(=O)N(CCCN4CCC(c5c[nH]c6ccc(F)cc56)CC4)C3=O)c2c1 (stereo not drawn)
Ki [1]: 30 nM | Ki [2]: 246 nM

O=C1CC(c2c[nH]c3ccc(F)cc23)C(=O)N1CCN1CCC(c2c[nH]c3ccccc23)CC1 (stereo not drawn)
Ki [1]: 102 nM | Ki [2]: 320 nM

O=C1CC(c2c[nH]c3ccc(F)cc23)C(=O)N1CCCN1CCC(c2c[nH]c3ccc(F)cc23)CC1 (stereo not drawn)
Ki [1]: 140 nM | Ki [2]: 336 nM

COc1ccc2[nH]cc(C3CC(=O)N(CCN4CCC(c5c[nH]c6ccccc56)CC4)C3=O)c2c1 (stereo not drawn)
Ki [1]: 142 nM | Ki [2]: 48.7 nM

O=C1CC(c2c[nH]c3ccccc23)C(=O)N1CCCCN1CCCC(c2c[nH]c3ccc(F)cc23)C1 (stereo not drawn)
Ki [2]: 183 nM

COc1ccc2[nH]cc(C3CCCN(CCCCN4C(=O)CC(c5c[nH]c6ccccc56)C4=O)C3)c2c1 (stereo not drawn)
Ki [2]: 78 nM

COc1ccc2[nH]cc(C3CCN(CCN4C(=O)CC(c5c[nH]c6ccc(F)cc56)C4=O)CC3)c2c1 (stereo not drawn)
Ki [1]: 1310 nM | Ki [2]: > 5000 nM

COc1ccc2[nH]cc(C3CCN(CCCCN4C(=O)CC(c5c[nH]c6ccc(OC)cc56)C4=O)CC3)c2c1 (stereo not drawn)
half-life at 1 µM [3]: 9.7 min | deltaT (Mus musculus [4]): 0 °C | deltaT (Mus musculus [5]): 0.4 °C | deltaT (Mus musculus [6]): 0.6 °C | deltaT (Mus musculus [7]): -0.9 °C | Ki [1]: 308 nM | deltaT (Mus musculus [8]): 0.5 °C | deltaT (Mus musculus [9]): 0.6 °C | deltaT (Mus musculus [10]): -0.5 °C | deltaT (Mus musculus [11]): 0.8 °C | deltaT (Mus musculus [12]): 0.3 °C | deltaT (Mus musculus [13]): 0.2 °C | deltaT (Mus musculus [14]): -0.5 °C | deltaT (Mus musculus [15]): 0.2 °C | deltaT (Mus musculus [16]): -0.6 °C | deltaT (Mus musculus [17]): -3.1 °C | Ki (D(2) dopamine receptor): 217 nM | deltaT (Mus musculus [18]): 0.4 °C | deltaT (Mus musculus [19]): 0.2 °C | Ki [2]: 2.3 nM | Ki [20]: 427 nM | Ki [21]: 320 nM | deltaT (Mus musculus [22]): -1.2 °C | deltaT (Mus musculus [23]): 0.3 °C

O=C1CC(c2c[nH]c3ccc(F)cc23)C(=O)N1CCCCN1CCC(c2c[nH]c3ccc(F)cc23)CC1 (stereo not drawn)
half-life at 1 µM [3]: 8.6 min | deltaT (Mus musculus [5]): 0.3 °C | deltaT (Mus musculus [6]): -0.1 °C | Ki [1]: 32.4 nM | deltaT (Mus musculus [9]): 0.3 °C | deltaT (Mus musculus [10]): -1 °C | deltaT (Mus musculus [12]): 0.2 °C | deltaT (Mus musculus [14]): 0.5 °C | deltaT (Mus musculus [24]): 0.4 °C | deltaT (Mus musculus [15]): 0.4 °C | deltaT (Mus musculus [16]): 0.1 °C | deltaT (Mus musculus [17]): -2 °C | Ki (D(2) dopamine receptor): 19 nM | deltaT (Mus musculus [18]): 0.4 °C | deltaT (Mus musculus [19]): 0.4 °C | Ki [2]: 7 nM | deltaT (Mus musculus [25]): 0.4 °C | Ki [20]: 301 nM | Ki [21]: 1160 nM | deltaT (Mus musculus [22]): -0.4 °C

COc1ccc2[nH]cc(C3CC(=O)N(CCCCN4CCC(c5c[nH]c6ccc(F)cc56)CC4)C3=O)c2c1 (stereo not drawn)
half-life at 1 µM [3]: 9.9 min | deltaT (Mus musculus [5]): -0.4 °C | deltaT (Mus musculus [6]): -0.1 °C | Ki [1]: 17.5 nM | deltaT (Mus musculus [9]): 0.3 °C | deltaT (Mus musculus [10]): -1.3 °C | deltaT (Mus musculus [12]): 0.4 °C | deltaT (Mus musculus [14]): 0.6 °C | deltaT (Mus musculus [24]): -0.2 °C | deltaT (Mus musculus [15]): -0.1 °C | deltaT (Mus musculus [16]): 0.6 °C | deltaT (Mus musculus [17]): -1.8 °C | Ki (D(2) dopamine receptor): 62 nM | deltaT (Mus musculus [18]): 0.4 °C | deltaT (Mus musculus [19]): 0.1 °C | Ki [2]: 4.9 nM | deltaT (Mus musculus [25]): -0.1 °C | Ki [20]: 85 nM | Ki [21]: 641 nM | deltaT (Mus musculus [22]): 0.5 °C

O=C1CC(c2c[nH]c3ccc(F)cc23)C(=O)N1CCCN1CCC(c2c[nH]c3ccccc23)CC1 (stereo not drawn)
Ki [1]: 151 nM | Ki [2]: 143 nM
